Data from US8715678B2, “Method for inhibiting the formation of SET1 family core complexes” (Syracuse University, priority 2008, dated 2014).
Ends that are not written are not given here.

What was measured:
[1] = test system: mouse embryonic carcinoma cell nuclei; experiment: Fluorescence localization and nuclear phenotype in mouse embryonic carcinoma cells; type: cell-based
[2] = test system: MLL1-dependent Hox genes (e.g. Hoxc8 and Hoxa9); experiment: Expression of MLL1-dependent Hox genes in HEK293T cells; type: cell-based; details: 20 micrograms per milliliter, 24 hours
Text: In another embodiment, an inhibitor peptide with a cell penetration sequence is used to treat MLL1-associated leukemia. […] The addition of the inhibitor peptides disclosed herein can help control the degree of upregulation and thereby serve as a treatment for leukemia. Experiments have shown the degree of expression of MLL1-dependent Hox genes (e.g. Hoxc8 and Hoxa9) are decreased in the presence of inhibitor peptide SEQ ID NO. 34 in HEK293T cells treated with 20 micrograms per milliliter of the inhibitor peptide for 24 hours.

[3] = test system: H3K4 trimethylation / H3K27 trimethylation of H3; experiment: Western blot of H3K4 trimethylation to H3K27 trimethylation ratio in HEK293T cells; type: cell-based; details: 20 micrograms per milliliter, 24 hours, normalized to total histone H3
Procedure: HEK293T cells were treated with 20 micrograms per milliliter of the inhibitor peptide (SEQ ID NO. 34) for 24 hours and immune-blotted using antibodies specific for H3K4 trimethylation, H3K27 trimethylation, and histone H3 (to provide for normalization). Western blots were quantified based on band intensity using image analysis software and normalized as a function of total histone H3. Tubulin was used as a loading control and its level remained constant between the two samples.

[4] = biological target: T1, WDR5 (Homo sapiens, UniProt P61964); experiment: Binding of N-acetylated three residue peptide (method not given); details: acetylated on the N-terminus
T1 construct: pMCGS7 plasmids encoding full-length WDR5 as N-terminal His6 fusions were obtained; His6 (N); made in house; host or cells: Escherichia coli (Rosetta II, Novagen)

| binding of three residue peptide [4] | Substance | localization of fluorescent signature ([1]; mouse embryonic carcinoma cells) | effect on metaphase cells and nuclear shape ([1]; within 48 hours of treatment) | degree of expression of MLL1-dependent Hox genes (Hoxc8 and Hoxa9) [2] | ratio of H3K4 trimethylation to H3K27 trimethylation [3] |
| --- | --- | --- | --- | --- | --- |
|  | Ac-VNPTGCARSEPK-Ahx-K(FTIC)-GRKKRRQRRRAP-CONH2 [SEQ ID NO. 34] | rapidly localized to eurchromatic regions of mouse embryonic carcinoma cell nuclei | metaphase cells are absent and many cell nuclei have adopted altered shapes | decreased | lowering of the ratio of H3K4 to H3K27 |
| capable of binding | acART (Ac-Ala-Arg-Thr) [three residue peptide (ARX2)] |  |  |  |  |
